Experimental data from ChEMBL document CHEMBL1201862, “PubChem BioAssay data set” (2004).
Active and inactive are the calls of the source.

What was measured:
[1] = inhibition of ARNT PAS-B/TACC3 complex formation – biochemical, AlphaScreen, cherry-picked samples, confirmation (AID 651703); format: functional, Homo sapiens;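 further: His-tagged ARNT PAS-B domain paired with GST-TACC3 E629A dimer coactivator fragment; potency of inhibitors that break up the complex and lower AlphaScreen signal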
[2] = target: Voltage-dependent T-type calcium channel subunit alpha-1H (Homo sapiens, UniProt O95180); format: functional;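 further: channel activity triggered by adding a high calcium stimulation buffer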
[3] = target: T1, Sentrin-specific protease 1 (Homo sapiens, UniProt Q9P0U3); assay: SENP1 catalytic domain blockers, concentration series – biochemical, kinetic FRET, dose response (AID 651697); format: functional; details: read-out: IC50_Mean
[4] = target: T1, Sentrin-specific protease 1; assay: Dose response confirmation of small molecule inhibitors of the catalytic domain of the SUMO protease, SENP1 in a FRET assay.; format: functional; details: read-out: IC50_Mean
[5] = target: Mu-type opioid receptor (Homo sapiens, UniProt P35372); assay: HTS Image-Based Screen for Agonists of the MOR Receptor. [Related pubchem assays (depositor defined):AID1777, AID1785, AID1786, AID2133]; format: functional;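 further: imaging of beta-arrestin GFP recruitment into spots after receptor activation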
[6] = Trypanosoma cruzi growth suppression in host cells – NIH3T3 host cells, beta-gal luminescence, confirmation (AID 2044); format: functional, cell-based;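 further: intracellular parasites grown in NIH/3T3 mouse fibroblasts as host cells; luminescent beta-galactosidase reporter signal from transgenic T. cruzi replicating inside host cells; inhibitors lower the luminescence signal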
[7] = target: T2, Short transient receptor potential channel 4 (Mus musculus, UniProt Q9QUQ5); assay: block of DAMGO-driven TRPC4 calcium entry – cell-based, HEK293 TRPC4/mu-opioid, Fluo-4 calcium, dose response (AID 434942); format: functional;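 further: potency of inhibitors blocking the TRPC4 calcium response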
T2 sequence (Q9QUQ5 whole entry): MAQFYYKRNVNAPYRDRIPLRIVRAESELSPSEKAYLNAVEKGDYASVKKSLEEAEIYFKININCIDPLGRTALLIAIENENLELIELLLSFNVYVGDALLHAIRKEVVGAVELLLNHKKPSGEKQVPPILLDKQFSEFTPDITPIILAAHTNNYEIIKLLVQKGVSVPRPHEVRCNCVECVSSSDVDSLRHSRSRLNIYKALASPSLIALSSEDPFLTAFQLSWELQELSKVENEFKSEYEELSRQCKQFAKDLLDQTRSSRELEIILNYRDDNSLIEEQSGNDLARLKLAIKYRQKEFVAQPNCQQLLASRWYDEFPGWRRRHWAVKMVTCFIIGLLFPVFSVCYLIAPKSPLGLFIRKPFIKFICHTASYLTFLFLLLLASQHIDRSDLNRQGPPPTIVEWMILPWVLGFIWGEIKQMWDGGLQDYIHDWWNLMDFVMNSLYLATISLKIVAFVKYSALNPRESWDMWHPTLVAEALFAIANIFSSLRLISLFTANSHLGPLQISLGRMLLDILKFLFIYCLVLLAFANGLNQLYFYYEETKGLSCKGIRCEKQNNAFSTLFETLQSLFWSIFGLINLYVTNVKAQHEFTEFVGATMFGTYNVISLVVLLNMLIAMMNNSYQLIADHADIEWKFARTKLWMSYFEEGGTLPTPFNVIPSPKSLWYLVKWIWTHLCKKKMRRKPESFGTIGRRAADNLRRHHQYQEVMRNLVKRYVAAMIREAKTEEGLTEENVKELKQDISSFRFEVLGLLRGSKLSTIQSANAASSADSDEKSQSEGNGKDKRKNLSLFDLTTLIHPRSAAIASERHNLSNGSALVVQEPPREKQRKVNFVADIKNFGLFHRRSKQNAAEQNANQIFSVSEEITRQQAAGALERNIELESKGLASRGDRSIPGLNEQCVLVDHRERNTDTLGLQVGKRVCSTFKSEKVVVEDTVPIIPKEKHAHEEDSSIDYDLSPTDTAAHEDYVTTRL

[8] = target: T3, Delta-type opioid receptor (Homo sapiens, UniProt P41143); assay: HTS Image-Based Screen for Antagonists of the DOR Receptor. [Related pubchem assays (depositor defined):AID1777, AID1785, AID1786, AID2133]; format: functional
[9] = target: Melanocortin receptor 4 (Homo sapiens, UniProt P32245); assay: inhibitors of MC4R cAMP signaling – cell-based, TR-FRET, biased antagonists, dose response (AID 602298); format: functional;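 further: antagonist potency against agonist-stimulated cAMP production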
[10] = target: Glucose-6-phosphate 1-dehydrogenase (Homo sapiens, UniProt P11413); assay: inhibition of Homo sapiens G6PD, dose series – biochemical, fluorescence, selectivity assay for P. falciparum G6PD inhibitor project, dose response (AID 504792); format: functional
[11] = target: T4, Kappa-type opioid receptor (Homo sapiens, UniProt P41145); format: functional
[12] = cAMP pathway inhibition in counterscreen cell line – TR-FRET cAMP detection, counter-screen for MC4R biased antagonist project, dose response (AID 602305); format: functional, cell-based;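 further: U2OS cells stimulated with forskolin near its EC80 as the cAMP inducer; potency is for inhibition of forskolin-stimulated cAMP signaling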
[13] = target: Heat shock protein HSP 90-alpha (Homo sapiens, UniProt P07900); format: functional, organism-based
[14] = target: T4, Kappa-type opioid receptor; format: functional; remark: listed apart in the source
[15] = NIH3T3 cell viability loss – ATP luminescence, mouse fibroblasts, counter-screen, dose response (AID 2010); format: functional, cell-based;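 further: cells exposed to compound for about 90 hours before reading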
[16] = target: T3, Delta-type opioid receptor; assay: HTS Image-Based Screen for Agonists of the DOR Receptor. [Related pubchem assays (depositor defined):AID1777, AID1786, AID2133]; format: functional
[17] = target: T5, Beta-galactosidase (Escherichia coli, UniProt Q8VNN2); assay: detection-enzyme interference by beta-gal modulators – biochemical, E. coli enzyme, set 3, artefact control for CCR6 antagonist project, dose response (AID 504712); format: functional
[18] = target: T6, Microphthalmia-associated transcription factor (Homo sapiens, UniProt O75030); assay: reducers of TRPM1 reporter luminescence, concentration series – cell-based, SK-MEL-5, cherry-picked, set 3, MITF inhibitor project, dose response (AID 493073); format: functional;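 further: SK-MEL-5 melanoma cells with luciferase driven by the MITF target TRPM1 promoter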
T6 sequence (O75030 whole entry): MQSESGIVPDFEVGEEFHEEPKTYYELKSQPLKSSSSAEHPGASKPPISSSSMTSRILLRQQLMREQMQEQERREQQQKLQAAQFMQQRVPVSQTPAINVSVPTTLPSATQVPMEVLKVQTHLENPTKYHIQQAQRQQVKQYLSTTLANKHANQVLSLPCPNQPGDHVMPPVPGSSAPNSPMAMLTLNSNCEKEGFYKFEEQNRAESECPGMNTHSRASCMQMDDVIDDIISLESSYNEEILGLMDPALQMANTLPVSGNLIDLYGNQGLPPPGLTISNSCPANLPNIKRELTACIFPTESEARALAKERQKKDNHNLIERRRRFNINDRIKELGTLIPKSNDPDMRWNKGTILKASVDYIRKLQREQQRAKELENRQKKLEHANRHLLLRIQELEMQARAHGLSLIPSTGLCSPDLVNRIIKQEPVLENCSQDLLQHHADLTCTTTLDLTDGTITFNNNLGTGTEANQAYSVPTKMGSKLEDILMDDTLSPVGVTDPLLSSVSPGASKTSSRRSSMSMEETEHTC

[19] = target: T5, Beta-galactosidase; format: functional
[20] = target: Ras and Rab interactor 1/Tyrosine-protein kinase ABL1 (Homo sapiens, UniProt P00519+Q13671); format: functional;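 further: biochemical TR-FRET dose-response test measuring inhibition of binding between Rin1 and Abl proteins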
[21] = target: Cytochrome P450 3A4 (Homo sapiens, UniProt P08684);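 further: CYP3A4 tested as one member of a cytochrome P450 panel screen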
[22] = target: Protein Wnt-3a (Mus musculus, UniProt P27467); assay: antagonism of Wnt3a pathway luciferase reporter – Wnt-LIGHT cells, luminescence, selectivity assay for Gli-SUFU antagonist project, dose response (AID 651570); format: functional; details: read-out: IC50_Mean;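 further: Wnt-LIGHT reporter cells stimulated with conditioned medium from Wnt3a-producing cells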
[23] = target: Cytochrome P450 2D6 (Homo sapiens, UniProt P10635);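 further: CYP2D6 member of a cytochrome P450 panel assay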
[24] = target: T7, Small ubiquitin-related modifier 1 (Homo sapiens, UniProt P63165); assay: SUMO1 protein-protein binding blockers, potency – biochemical, FRET, dose response (AID 624383); format: functional; details: read-out: IC50_Mean
[25] = target: T7, Small ubiquitin-related modifier 1; assay: SUMO1 protein interaction blockers, potency – biochemical, fluorescence polarization, uHTS hits, dose response (AID 624382); format: functional; details: read-out: IC50_Mean

T7 sequence (P63165 whole entry): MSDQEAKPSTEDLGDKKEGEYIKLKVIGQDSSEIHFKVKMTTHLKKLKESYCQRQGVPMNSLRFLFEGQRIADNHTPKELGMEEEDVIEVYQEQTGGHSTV
T1 sequence (Q9P0U3 whole entry, the tested form may be a part): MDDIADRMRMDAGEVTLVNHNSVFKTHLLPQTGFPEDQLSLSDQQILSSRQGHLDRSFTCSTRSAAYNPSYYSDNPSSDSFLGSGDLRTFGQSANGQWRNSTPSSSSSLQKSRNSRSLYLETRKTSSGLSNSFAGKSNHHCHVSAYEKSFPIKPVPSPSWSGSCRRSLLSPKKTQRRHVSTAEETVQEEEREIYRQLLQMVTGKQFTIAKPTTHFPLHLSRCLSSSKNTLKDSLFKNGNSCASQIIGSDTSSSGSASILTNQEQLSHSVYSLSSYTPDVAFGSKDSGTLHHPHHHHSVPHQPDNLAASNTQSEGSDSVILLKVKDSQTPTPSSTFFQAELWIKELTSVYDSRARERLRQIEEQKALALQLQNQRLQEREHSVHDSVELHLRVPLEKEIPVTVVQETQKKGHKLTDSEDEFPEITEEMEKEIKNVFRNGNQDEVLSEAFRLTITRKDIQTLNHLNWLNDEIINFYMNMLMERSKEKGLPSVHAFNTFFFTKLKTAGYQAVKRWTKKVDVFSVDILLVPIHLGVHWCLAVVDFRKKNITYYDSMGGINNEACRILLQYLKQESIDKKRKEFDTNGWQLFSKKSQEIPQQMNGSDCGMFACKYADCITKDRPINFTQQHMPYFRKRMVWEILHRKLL
T5 sequence (Q8VNN2 whole entry): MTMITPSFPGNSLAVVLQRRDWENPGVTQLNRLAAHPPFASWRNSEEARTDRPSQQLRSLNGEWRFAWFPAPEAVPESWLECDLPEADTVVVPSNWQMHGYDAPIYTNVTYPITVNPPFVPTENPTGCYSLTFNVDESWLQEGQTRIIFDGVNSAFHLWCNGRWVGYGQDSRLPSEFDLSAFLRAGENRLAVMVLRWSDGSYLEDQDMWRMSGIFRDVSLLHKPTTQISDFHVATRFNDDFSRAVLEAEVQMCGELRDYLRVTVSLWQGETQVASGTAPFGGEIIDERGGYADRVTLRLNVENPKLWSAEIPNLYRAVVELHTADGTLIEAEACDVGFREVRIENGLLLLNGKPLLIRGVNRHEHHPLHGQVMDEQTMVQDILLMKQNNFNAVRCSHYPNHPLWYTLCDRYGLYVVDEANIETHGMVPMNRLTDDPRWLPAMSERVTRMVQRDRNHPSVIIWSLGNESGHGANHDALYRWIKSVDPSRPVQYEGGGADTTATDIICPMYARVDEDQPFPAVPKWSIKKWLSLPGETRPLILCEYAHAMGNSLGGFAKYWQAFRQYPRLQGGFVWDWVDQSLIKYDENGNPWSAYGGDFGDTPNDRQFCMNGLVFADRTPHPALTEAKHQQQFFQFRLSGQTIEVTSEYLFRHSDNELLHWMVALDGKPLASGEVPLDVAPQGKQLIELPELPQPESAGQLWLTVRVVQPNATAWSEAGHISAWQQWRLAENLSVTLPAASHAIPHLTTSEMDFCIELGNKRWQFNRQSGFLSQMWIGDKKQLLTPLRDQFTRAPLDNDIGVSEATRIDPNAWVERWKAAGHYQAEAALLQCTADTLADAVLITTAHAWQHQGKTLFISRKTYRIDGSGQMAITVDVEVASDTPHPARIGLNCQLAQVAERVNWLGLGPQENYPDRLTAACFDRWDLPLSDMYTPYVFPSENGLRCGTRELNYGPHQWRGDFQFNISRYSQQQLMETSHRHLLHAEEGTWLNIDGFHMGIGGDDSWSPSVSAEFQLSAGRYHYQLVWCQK
T3 sequence (P41143 whole entry): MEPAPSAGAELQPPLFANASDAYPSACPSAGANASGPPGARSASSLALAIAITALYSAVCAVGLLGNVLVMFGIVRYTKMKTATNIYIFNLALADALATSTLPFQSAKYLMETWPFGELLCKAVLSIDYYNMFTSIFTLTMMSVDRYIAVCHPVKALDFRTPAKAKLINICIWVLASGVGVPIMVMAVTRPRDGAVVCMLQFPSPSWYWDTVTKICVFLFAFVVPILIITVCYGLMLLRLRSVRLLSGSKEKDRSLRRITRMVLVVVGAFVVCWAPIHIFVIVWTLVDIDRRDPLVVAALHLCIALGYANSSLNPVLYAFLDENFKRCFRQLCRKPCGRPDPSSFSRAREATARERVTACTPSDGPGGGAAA
T4 sequence (P41145 whole entry): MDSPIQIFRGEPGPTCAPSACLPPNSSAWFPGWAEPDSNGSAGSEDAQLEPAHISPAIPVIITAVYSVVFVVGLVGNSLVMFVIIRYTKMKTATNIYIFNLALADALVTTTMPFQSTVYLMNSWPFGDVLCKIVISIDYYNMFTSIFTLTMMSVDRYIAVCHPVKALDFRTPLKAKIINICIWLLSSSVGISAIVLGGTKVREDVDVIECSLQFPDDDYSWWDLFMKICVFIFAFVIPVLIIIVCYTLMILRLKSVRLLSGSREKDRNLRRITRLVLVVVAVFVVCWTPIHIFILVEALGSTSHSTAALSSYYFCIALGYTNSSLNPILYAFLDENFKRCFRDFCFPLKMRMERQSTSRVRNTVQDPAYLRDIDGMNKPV
Sequence of Voltage-dependent T-type calcium channel subunit alpha-1H (O95180 whole entry, the tested form may be a part): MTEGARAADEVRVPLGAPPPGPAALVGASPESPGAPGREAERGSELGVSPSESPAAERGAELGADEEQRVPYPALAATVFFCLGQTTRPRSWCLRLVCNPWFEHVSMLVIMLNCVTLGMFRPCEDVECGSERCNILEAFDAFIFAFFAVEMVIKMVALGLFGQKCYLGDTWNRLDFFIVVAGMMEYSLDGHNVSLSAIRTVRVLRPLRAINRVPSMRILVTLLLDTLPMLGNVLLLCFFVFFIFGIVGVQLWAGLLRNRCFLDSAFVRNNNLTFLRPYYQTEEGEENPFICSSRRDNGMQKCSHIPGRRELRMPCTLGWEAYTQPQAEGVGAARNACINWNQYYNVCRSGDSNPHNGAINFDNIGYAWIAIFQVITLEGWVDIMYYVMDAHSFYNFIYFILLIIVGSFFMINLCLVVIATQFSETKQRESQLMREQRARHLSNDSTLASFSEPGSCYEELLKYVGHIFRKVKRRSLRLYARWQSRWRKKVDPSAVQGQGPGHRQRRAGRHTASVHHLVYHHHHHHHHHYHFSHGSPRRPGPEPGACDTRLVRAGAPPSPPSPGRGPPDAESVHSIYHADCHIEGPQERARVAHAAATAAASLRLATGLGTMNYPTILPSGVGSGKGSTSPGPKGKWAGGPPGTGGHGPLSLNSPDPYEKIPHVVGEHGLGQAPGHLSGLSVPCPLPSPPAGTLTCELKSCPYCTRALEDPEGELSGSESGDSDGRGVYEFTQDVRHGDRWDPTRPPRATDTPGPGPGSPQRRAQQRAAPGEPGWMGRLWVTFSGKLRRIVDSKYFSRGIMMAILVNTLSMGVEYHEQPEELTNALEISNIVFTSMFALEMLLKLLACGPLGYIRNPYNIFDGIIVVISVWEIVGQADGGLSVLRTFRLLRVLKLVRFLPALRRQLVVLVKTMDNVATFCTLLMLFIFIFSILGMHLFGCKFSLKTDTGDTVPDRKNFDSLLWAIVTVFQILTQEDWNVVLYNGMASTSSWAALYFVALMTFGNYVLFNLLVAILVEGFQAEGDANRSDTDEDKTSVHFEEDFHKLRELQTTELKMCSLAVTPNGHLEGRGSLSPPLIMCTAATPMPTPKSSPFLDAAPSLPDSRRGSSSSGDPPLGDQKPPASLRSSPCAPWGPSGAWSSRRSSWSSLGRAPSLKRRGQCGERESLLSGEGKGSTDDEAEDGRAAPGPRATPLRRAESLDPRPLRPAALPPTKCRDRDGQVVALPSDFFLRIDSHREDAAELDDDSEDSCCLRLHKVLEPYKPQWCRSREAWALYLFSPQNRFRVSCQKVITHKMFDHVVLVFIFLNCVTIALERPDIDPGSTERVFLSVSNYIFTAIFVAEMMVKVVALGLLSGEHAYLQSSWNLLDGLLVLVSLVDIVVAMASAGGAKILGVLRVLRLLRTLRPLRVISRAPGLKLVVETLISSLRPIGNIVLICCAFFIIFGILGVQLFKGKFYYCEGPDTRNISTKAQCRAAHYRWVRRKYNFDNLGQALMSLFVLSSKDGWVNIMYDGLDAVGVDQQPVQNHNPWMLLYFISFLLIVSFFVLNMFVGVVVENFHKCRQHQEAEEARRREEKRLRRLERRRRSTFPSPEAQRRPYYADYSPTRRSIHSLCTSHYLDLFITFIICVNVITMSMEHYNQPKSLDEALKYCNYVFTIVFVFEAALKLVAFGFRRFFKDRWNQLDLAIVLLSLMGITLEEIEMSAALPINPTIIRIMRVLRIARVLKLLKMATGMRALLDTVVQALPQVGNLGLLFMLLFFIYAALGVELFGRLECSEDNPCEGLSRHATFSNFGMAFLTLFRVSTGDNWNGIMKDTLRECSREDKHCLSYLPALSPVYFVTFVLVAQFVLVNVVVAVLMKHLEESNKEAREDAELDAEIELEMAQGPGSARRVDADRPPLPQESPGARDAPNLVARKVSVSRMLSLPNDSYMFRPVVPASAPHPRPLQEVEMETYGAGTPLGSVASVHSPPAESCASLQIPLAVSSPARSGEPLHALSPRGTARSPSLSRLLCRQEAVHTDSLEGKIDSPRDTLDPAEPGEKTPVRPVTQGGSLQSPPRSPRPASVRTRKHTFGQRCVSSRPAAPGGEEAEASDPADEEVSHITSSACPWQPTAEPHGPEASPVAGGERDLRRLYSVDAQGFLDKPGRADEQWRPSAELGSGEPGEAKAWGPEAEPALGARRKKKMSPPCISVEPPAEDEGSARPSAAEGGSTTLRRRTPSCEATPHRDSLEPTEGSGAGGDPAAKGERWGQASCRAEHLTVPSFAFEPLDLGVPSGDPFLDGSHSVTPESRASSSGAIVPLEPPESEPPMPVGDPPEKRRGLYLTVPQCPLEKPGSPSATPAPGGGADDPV

SMILES: COc1ccc(C(c2nnnn2C2CCCC2)N2CCc3ccccc3C2)cc1OC (stereo not given)
- AC50 [1]: 132 µM (active)
- EC50 [2]: 5.07 µM (active)

SMILES: Cc1nc2nonc2c2nccc(O)c12
- IC50 [3]: 8.83 µM (active)
- IC50 [4]: 8.04 µM (active)

SMILES: Cc1ccc(NC(=O)c2cc(N3C(=O)C=CC3=O)ccc2N2CCOCC2)cc1
- EC50 [5]: > 32 µM (inactive)
- EC50 [6]: 2.85 µM (active)
- EC50 [7]: 5.31 µM (active)
- IC50 [8]: > 32 µM (inactive)
- IC50 [9]: 11.9 µM (inactive)
- IC50 [10]: 53 µM (inactive)
- IC50 [11]: 23.7 µM
- IC50 [12]: 39 µM (inactive)
- AC50 [13]: 0.591 µM (active)
- IC50 [14]: 8.25 µM (active)
- EC50 [15]: 6.01 µM (active)
- EC50 [16]: > 32 µM (inactive)
- IC50 [17]: > 66.6 µM (inactive)
- AC50 [18]: 11.6 µM (active)
- EC50 [19]: > 31.5 µM (inactive)

SMILES: CCOC(=O)CCCCC(=O)c1[nH]c(=O)[nH]c1Cn1ccnc1
- IC50 [20]: 12.8 µM (inactive)

SMILES: FC(F)(F)c1ccc(N2CCN(c3cc(-c4ccccc4)nc4ncnn34)CC2)nc1
- AC50 [21]: inconclusive
- IC50 [22]: 5.78 µM (active)
- AC50 [23]: 11.2 µM (inconclusive)

SMILES: CC(=O)c1sc(Nc2nc3cc4c(cc3s2)OCO4)nc1C
- IC50 [24]: 11.1 µM (active)
- IC50 [25]: > 66.6 µM (inactive)
